Assay results published in PubChem BioAssay AID1963983 (Molecular Pharmacology Branch, DTP, NCI, 2024).

Test system: 186277-243-T-J2-PDC multi-cell spheroid viability
Test: Anticancer human tumor 186277-243-T-J2-PDC patient-derived colon adenocarcinoma cell line growth inhibition [PI3K]
Settings: for IC50: curve of first compound; for viability, T/C: stronger effect = lower value
Summary of the method: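 Complex 3D spheroids (cancer cells + endothelial HUVEC + mesenchymal stem cells); drug pairs of targeted agent x inavolisib/alpelisib/duvelisib/copanlisib; half-log series from ~Cmax, max 10 microM if Cmax unknown; endpoint viability.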

[1] = second compound 0.00316 µM, first compound 0.0316 µM
[2] = second compound 0.00316 µM, first compound 0.1 µM
[3] = second compound 0.00316 µM, first compound 0.316 µM
[4] = second compound 0.00316 µM, first compound 1 µM
[5] = second compound 0.00316 µM, first compound 3.16 µM
[6] = second compound 0.00316 µM, first compound 10 µM
[7] = second compound 0.01 µM, first compound 0.0316 µM
[8] = second compound 0.01 µM, first compound 0.1 µM
[9] = second compound 0.01 µM, first compound 0.316 µM
[10] = second compound 0.01 µM, first compound 1 µM
[11] = second compound 0.01 µM, first compound 3.16 µM
[12] = second compound 0.01 µM, first compound 10 µM
[13] = second compound 0.0316 µM, first compound 0.0316 µM
[14] = second compound 0.0316 µM, first compound 0.1 µM
[15] = second compound 0.0316 µM, first compound 0.316 µM
[16] = second compound 0.0316 µM, first compound 1 µM
[17] = second compound 0.0316 µM, first compound 3.16 µM
[18] = second compound 0.0316 µM, first compound 10 µM
[19] = second compound 0.1 µM, first compound 0.0316 µM
[20] = second compound 0.1 µM, first compound 0.1 µM
[21] = second compound 0.1 µM, first compound 0.316 µM
[22] = second compound 0.1 µM, first compound 1 µM
[23] = second compound 0.1 µM, first compound 3.16 µM
[24] = second compound 0.1 µM, first compound 10 µM
[25] = second compound 0.316 µM, first compound 0.0316 µM
[26] = second compound 0.316 µM, first compound 0.1 µM
[27] = second compound 0.316 µM, first compound 0.316 µM
[28] = second compound 0.316 µM, first compound 1 µM
[29] = second compound 0.316 µM, first compound 3.16 µM
[30] = second compound 0.316 µM, first compound 10 µM
[31] = second compound 1 µM, first compound 0.0316 µM
[32] = second compound 1 µM, first compound 0.1 µM
[33] = second compound 1 µM, first compound 0.316 µM
[34] = second compound 1 µM, first compound 1 µM
[35] = second compound 1 µM, first compound 3.16 µM
[36] = second compound 1 µM, first compound 10 µM
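Note: spheroids exposed to compounds for seven days before viability reading.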
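Throughout, for viability, T/C: 100% = DMSO vehicle control viability.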

With CC1(C)CCC(Nc2ncc(C(F)(F)F)c(-c3c[nH]c4c(P(C)(C)=O)c(C#N)ccc34)n2)CN1 (stereo unspecified) + CC(Nc1ccc2c(c1)OCCn1cc(N3C(=O)OCC3C(F)F)nc1-2)C(N)=O the IC50 (second compound 0.00316 µM) was 3.6 µM, the IC50 (second compound 0.01 µM) was 3.86 µM and the IC50 (second compound 0.0316 µM) was 3.52 µM. The IC50 (second compound 0.1 µM) was 1.65 µM, the IC50 (second compound 0.316 µM) was 0.0569 µM and the IC50 (second compound 1 µM) was less than 0.0316 µM. For the same compound, the viability, T/C [1] was 71.6%, the viability, T/C [2] was 45.1% and the viability, T/C [3] was 52.8%. For the same compound, the viability, T/C [4] was 56.5%, the viability, T/C [5] was 56.6% and the viability, T/C [6] was 1.03%. For the same compound, the viability, T/C [7] was 69.1%, the viability, T/C [8] was 52.9% and the viability, T/C [9] was 55%. It also gave a viability, T/C [10] of 58.9%, a viability, T/C [11] of 66.3% and a viability, T/C [12] of 0.23%. For the same compound, the viability, T/C [13] was 78%, the viability, T/C [14] was 54.3% and the viability, T/C [15] was 51.7%. The viability, T/C [16] was 57.8%, the viability, T/C [17] was 55.3% and the viability, T/C [18] was 0.17%. It also gave a viability, T/C [19] of 72.7%, a viability, T/C [20] of 54.3% and a viability, T/C [21] of 60.4%. It also gave a viability, T/C [22] of 55.6%, a viability, T/C [23] of 43.6% and a viability, T/C [24] of 0.46%. The viability, T/C [25] was 54.2%, the viability, T/C [26] was 49.7% and the viability, T/C [27] was 33.4%. For the same compound, the viability, T/C [28] was 41%, the viability, T/C [29] was 22.6% and the viability, T/C [30] was 0.44%. The viability, T/C [31] was 34.5%, the viability, T/C [32] was 29.1% and the viability, T/C [33] was 22.6%. It also gave a viability, T/C [34] of 26.4%, a viability, T/C [35] of 12.2% and a viability, T/C [36] of 1.38%.
With CCCS(=O)(=O)Nc1ccc(F)c(C(=O)c2c[nH]c3ncc(-c4ccc(Cl)cc4)cc23)c1F + Cc1nc(NC(=O)N2CCCC2C(N)=O)sc1-c1ccnc(C(C)(C)C(F)(F)F)c1 the IC50 (second compound 0.0316 µM) was 5.42 µM, the IC50 (second compound 0.1 µM) was 5.41 µM and the IC50 (second compound 0.316 µM) was 4.75 µM. It also gave an IC50 (second compound 1 µM) of 4.85 µM, an IC50 (second compound 3.16 µM) of 4.26 µM and an IC50 (second compound 10 µM) of less than 0.0316 µM. For the same compound, the viability, T/C [13] was 88.2%, the viability, T/C [14] was 76.7% and the viability, T/C [15] was 88.5%. It also gave a viability, T/C [16] of 89.2%, a viability, T/C [17] of 89% and a viability, T/C [18] of 8.5%. The viability, T/C [19] was 98.1%, the viability, T/C [20] was 105% and the viability, T/C [21] was 89.6%. The viability, T/C [22] was 94.9%, the viability, T/C [23] was 87.2% and the viability, T/C [24] was 7.3%. The viability, T/C [25] was 113%, the viability, T/C [26] was 103% and the viability, T/C [27] was 89.2%. It also gave a viability, T/C [28] of 88%, a viability, T/C [29] of 78.7% and a viability, T/C [30] of 7.15%. For the same compound, the viability, T/C [31] was 95.8%, the viability, T/C [32] was 104% and the viability, T/C [33] was 98.5%. The viability, T/C [34] was 91.9%, the viability, T/C [35] was 76.5% and the viability, T/C [36] was 6.14%. For the same compound, the viability, T/C (second compound 3.16 µM, first compound 0.0316 µM) was 67.6%, the viability, T/C (second compound 3.16 µM, first compound 0.1 µM) was 81.6% and the viability, T/C (second compound 3.16 µM, first compound 0.316 µM) was 81.1%. It also gave a viability, T/C (second compound 3.16 µM, first compound 1 µM) of 82%, a viability, T/C (second compound 3.16 µM, first compound 3.16 µM) of 65.6% and a viability, T/C (second compound 3.16 µM, first compound 10 µM) of 5.53%. For the same compound, the viability, T/C (second compound 10 µM, first compound 0.0316 µM) was 15.2%, the viability, T/C (second compound 10 µM, first compound 0.1 µM) was 17.1% and the viability, T/C (second compound 10 µM, first compound 0.316 µM) was 26.6%. It also gave a viability, T/C (second compound 10 µM, first compound 1 µM) of 35.3%, a viability, T/C (second compound 10 µM, first compound 3.16 µM) of 38.8% and a viability, T/C (second compound 10 µM, first compound 10 µM) of 2.29%.
Work on CC(Cn1ccc(-c2ccc(C#N)c(Cl)c2)n1)NC(=O)c1cc(C(C)O)[nH]n1 (stereo unspecified) + CC(Nc1ccc2c(c1)OCCn1cc(N3C(=O)OCC3C(F)F)nc1-2)C(N)=O yielded an IC50 (second compound 0.00316 µM) greater than 10 µM, an IC50 (second compound 0.01 µM) greater than 10 µM and an IC50 (second compound 0.0316 µM) greater than 10 µM. It also gave an IC50 (second compound 0.1 µM) greater than 10 µM, an IC50 (second compound 0.316 µM) greater than 10 µM and an IC50 (second compound 1 µM) of less than 0.0316 µM. It also gave a viability, T/C [1] of 97.8%, a viability, T/C [2] of 97% and a viability, T/C [3] of 91.3%. The viability, T/C [4] was 84.9%, the viability, T/C [5] was 93.6% and the viability, T/C [6] was 102%. For the same compound, the viability, T/C [7] was 101%, the viability, T/C [8] was 93.2% and the viability, T/C [9] was 95.6%. It also gave a viability, T/C [10] of 91.6%, a viability, T/C [11] of 108% and a viability, T/C [12] of 91.7%. For the same compound, the viability, T/C [13] was 106%, the viability, T/C [14] was 95.3% and the viability, T/C [15] was 102%. For the same compound, the viability, T/C [16] was 111%, the viability, T/C [17] was 111% and the viability, T/C [18] was 95.5%. For the same compound, the viability, T/C [19] was 104%, the viability, T/C [20] was 107% and the viability, T/C [21] was 101%. The viability, T/C [22] was 90.1%, the viability, T/C [23] was 88.8% and the viability, T/C [24] was 74.4%. The viability, T/C [25] was 81.3%, the viability, T/C [26] was 82% and the viability, T/C [27] was 74.6%. It also gave a viability, T/C [28] of 73%, a viability, T/C [29] of 67.7% and a viability, T/C [30] of 57.7%. The viability, T/C [31] was 47.7%, the viability, T/C [32] was 45.9% and the viability, T/C [33] was 44.9%. The viability, T/C [34] was 45.6%, the viability, T/C [35] was 44% and the viability, T/C [36] was 35.4%.
